From PMC12586182 (Frontiers in Oncology, 2025)

How the values were obtained:
Assay in all cases: Kinase panel profiling at 1 µmol/L (mobility shift assay, Carna)
Type in all cases: biochemical
Conditions in all cases: 1 µmol/L of BTK inhibitor
EPHA1 = biological target: T1, EPHA1 (Homo sapiens, UniProt P21709)
T1 construct: purchased Carna Biosciences
T1 sequence (P21709 26-976): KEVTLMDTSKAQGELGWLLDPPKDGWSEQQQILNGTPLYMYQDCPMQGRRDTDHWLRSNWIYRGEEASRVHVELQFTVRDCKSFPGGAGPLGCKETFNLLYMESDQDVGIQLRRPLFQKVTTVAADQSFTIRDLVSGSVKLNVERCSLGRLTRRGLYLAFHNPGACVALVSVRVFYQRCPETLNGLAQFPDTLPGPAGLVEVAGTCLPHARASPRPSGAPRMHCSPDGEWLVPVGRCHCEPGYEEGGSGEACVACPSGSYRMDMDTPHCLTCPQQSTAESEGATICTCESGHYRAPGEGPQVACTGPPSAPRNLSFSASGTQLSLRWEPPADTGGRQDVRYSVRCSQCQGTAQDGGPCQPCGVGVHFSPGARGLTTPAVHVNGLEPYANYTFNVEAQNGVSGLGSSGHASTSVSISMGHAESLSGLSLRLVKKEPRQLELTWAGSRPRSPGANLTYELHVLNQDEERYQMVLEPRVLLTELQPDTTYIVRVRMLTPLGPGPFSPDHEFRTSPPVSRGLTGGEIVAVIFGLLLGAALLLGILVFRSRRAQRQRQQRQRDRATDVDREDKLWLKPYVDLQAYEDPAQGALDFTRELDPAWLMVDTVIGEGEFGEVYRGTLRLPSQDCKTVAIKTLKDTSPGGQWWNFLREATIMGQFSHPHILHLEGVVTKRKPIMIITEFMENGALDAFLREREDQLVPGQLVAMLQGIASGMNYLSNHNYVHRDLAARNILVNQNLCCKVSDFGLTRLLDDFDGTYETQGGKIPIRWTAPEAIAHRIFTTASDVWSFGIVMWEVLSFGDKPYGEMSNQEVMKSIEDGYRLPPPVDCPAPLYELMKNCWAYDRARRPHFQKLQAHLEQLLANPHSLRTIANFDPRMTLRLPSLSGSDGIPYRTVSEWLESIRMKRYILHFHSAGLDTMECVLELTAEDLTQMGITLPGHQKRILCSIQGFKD

CRIK = biological target: T2, CRIK (Homo sapiens, UniProt O14578)
T2 construct: purchased Carna Biosciences
T2 sequence (O14578 whole entry): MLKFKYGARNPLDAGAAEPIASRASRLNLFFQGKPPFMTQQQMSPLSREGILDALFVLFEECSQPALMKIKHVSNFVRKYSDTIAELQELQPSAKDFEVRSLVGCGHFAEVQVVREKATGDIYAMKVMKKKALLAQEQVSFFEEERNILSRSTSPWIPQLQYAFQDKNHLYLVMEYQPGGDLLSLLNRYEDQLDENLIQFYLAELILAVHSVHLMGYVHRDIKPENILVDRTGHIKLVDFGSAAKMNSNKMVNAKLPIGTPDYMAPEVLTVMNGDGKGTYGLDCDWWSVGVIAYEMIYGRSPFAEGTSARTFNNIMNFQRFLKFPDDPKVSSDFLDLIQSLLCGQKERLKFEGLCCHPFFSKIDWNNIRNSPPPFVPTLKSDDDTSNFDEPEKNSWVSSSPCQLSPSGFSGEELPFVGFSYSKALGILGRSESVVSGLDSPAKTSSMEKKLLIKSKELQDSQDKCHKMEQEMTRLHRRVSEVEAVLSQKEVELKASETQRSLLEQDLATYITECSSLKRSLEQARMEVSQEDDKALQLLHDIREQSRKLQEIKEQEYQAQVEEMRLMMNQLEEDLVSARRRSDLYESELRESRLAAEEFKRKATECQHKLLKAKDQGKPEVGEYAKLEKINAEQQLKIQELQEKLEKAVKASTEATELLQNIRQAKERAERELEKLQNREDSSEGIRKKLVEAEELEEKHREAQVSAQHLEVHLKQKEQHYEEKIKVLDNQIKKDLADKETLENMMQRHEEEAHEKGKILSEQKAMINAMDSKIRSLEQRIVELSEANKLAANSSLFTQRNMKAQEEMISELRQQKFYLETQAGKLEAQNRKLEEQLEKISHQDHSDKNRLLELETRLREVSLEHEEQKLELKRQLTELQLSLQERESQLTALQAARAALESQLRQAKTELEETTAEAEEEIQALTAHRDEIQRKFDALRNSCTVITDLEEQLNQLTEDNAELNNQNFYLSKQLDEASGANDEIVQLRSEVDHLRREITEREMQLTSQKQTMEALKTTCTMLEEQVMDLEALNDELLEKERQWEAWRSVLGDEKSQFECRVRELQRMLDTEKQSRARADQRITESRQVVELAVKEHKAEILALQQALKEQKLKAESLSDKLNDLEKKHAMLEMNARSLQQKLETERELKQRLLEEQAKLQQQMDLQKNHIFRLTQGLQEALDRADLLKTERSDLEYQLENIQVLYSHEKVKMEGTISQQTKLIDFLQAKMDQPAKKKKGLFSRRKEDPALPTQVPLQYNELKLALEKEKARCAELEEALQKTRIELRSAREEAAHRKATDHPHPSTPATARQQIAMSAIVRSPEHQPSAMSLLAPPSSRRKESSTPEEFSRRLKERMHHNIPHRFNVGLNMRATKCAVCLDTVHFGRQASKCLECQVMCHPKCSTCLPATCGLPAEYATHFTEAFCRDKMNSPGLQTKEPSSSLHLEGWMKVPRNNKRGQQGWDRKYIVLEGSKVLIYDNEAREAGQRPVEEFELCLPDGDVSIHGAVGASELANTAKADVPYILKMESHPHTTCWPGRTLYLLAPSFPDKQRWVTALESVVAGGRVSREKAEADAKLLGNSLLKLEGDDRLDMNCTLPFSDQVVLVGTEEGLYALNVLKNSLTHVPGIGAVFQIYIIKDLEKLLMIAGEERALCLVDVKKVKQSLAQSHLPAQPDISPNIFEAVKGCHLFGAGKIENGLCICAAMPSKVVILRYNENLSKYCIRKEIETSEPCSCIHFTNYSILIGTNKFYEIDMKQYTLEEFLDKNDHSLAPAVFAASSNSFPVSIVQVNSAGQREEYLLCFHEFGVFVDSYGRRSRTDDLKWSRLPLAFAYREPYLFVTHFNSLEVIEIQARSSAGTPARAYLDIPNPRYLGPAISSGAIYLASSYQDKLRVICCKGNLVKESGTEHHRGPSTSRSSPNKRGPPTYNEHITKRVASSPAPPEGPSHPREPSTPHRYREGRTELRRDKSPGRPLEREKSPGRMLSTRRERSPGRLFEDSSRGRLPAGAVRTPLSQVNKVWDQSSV

DYRK1A = biological target: T3, DYRK1A (Homo sapiens, UniProt Q13627)
T3 construct: purchased Carna Biosciences

EEF2K = biological target: T4, EEF2K (Homo sapiens, UniProt O00418)
T4 construct: purchased Carna Biosciences
T4 sequence (O00418 1-725): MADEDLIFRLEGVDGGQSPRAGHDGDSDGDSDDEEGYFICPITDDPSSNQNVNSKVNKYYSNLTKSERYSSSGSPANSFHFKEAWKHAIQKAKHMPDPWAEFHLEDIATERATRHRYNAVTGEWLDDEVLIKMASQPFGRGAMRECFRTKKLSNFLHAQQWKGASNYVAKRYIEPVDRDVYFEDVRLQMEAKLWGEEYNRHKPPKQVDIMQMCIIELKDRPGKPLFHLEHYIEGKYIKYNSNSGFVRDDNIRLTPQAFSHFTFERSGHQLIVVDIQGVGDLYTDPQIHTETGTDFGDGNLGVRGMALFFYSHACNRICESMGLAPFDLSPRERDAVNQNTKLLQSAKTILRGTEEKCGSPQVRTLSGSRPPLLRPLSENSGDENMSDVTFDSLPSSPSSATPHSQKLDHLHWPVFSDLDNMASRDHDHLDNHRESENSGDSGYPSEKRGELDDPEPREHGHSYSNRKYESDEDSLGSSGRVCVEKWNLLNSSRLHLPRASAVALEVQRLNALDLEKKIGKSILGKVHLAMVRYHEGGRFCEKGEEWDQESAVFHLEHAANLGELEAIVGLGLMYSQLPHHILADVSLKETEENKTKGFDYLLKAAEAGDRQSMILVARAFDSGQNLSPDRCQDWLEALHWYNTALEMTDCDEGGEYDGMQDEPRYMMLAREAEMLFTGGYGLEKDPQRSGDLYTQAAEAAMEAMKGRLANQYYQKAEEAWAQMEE

HIPK4 = biological target: T5, HIPK4 (Homo sapiens, UniProt Q8NE63)
T5 construct: purchased Carna Biosciences
T5 sequence (Q8NE63 1-616): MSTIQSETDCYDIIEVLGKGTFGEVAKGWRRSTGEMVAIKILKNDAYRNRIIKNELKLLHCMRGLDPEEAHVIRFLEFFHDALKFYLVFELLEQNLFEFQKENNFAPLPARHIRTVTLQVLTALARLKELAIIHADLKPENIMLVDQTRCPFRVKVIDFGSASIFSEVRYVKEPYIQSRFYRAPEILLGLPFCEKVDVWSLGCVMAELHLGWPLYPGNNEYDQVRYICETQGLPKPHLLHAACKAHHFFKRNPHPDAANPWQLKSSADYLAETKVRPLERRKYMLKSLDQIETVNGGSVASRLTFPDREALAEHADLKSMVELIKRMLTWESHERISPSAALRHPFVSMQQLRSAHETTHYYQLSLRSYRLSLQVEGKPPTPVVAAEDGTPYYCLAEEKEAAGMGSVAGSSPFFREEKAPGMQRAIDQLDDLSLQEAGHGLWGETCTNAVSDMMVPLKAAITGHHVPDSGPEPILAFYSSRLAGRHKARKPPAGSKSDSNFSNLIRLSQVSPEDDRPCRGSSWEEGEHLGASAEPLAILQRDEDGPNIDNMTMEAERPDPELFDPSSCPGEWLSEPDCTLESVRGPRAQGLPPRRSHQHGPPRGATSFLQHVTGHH

MST2 = biological target: T6, MST2 (Homo sapiens, UniProt Q13188)
T6 construct: purchased Carna Biosciences
T6 sequence (Q13188 1-491): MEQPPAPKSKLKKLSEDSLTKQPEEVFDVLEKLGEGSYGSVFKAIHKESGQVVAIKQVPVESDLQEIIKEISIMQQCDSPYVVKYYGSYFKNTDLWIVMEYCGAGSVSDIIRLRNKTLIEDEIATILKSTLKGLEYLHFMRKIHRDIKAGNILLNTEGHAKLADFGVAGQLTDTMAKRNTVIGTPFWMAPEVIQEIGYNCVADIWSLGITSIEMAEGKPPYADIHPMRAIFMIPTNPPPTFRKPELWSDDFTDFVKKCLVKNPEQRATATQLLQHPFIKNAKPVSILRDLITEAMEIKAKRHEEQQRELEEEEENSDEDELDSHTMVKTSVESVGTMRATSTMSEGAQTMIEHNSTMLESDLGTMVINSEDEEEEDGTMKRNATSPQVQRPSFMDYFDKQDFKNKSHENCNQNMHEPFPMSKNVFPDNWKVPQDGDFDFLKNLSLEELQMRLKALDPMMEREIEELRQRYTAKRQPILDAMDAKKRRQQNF

SRPK1 = biological target: T7, SRPK1 (Homo sapiens, UniProt Q96SB4)
T7 construct: purchased Carna Biosciences
T7 sequence (Q96SB4 whole entry): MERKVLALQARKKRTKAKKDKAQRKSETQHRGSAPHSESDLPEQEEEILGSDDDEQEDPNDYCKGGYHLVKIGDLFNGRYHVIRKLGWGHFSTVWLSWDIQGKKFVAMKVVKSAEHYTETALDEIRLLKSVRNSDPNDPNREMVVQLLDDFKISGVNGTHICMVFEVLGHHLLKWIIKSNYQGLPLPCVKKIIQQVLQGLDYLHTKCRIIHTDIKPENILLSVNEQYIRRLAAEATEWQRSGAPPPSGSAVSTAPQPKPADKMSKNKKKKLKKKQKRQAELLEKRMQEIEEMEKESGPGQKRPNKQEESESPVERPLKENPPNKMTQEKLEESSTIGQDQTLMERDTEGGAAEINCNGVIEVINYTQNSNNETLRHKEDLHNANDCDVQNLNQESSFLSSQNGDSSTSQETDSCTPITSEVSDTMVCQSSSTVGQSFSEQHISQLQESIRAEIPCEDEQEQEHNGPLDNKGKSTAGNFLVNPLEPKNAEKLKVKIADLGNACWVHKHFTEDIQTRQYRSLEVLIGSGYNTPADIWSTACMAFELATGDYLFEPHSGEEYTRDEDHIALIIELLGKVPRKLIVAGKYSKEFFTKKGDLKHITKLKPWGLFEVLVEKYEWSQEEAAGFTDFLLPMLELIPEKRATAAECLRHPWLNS

SMILES | Percentage inhibition of kinase enzyme activity (EPHA1) [%] | Percentage inhibition of kinase enzyme activity (CRIK) [%] | Percentage inhibition of kinase enzyme activity (DYRK1A) [%] | Percentage inhibition of kinase enzyme activity (EEF2K) [%] | Percentage inhibition of kinase enzyme activity (HIPK4) [%] | Percentage inhibition of kinase enzyme activity (MST2) [%] | Percentage inhibition of kinase enzyme activity (SRPK1) [%]
CC#CC(=O)N1CCC[C@H]1c1nc(-c2ccc(C(=O)Nc3ccccn3)cc2)c2c(N)nccn12 [acalabrutinib] | -0.59 | -5.14 | -4.57 | -12.14 | -9.54 | -3.46 | -4.73
C=CC(=O)N1CCC[C@@H](n2nc(-c3ccc(Oc4ccccc4)cc3)c3c(N)ncnc32)C1 [ibrutinib] | 49.82 | -0.17 | -3.54 | 1.15 | 2.60 | 16.65 | 1.20
O=C(c1ccc(Oc2ccccc2)cc1Cl)c1c[nH]c2ncnc(N[C@@H]3CC[C@@H](CO)OC3)c12 [nemtabrutinib] | 58.54 | -5.26 | -2.18 | 0.24 | 13.77 | 86.96 | 6.73
COc1ccc(F)cc1C(=O)NCc1ccc(-c2nn([C@@H](C)C(F)(F)F)c(N)c2C(N)=O)cc1 [pirtobrutinib] | -1.27 | -3.77 | -2.78 | -0.12 | 2.58 | 6.74 | 8.97
C=CC(=O)N1CCC([C@@H]2CCNc3c(C(N)=O)c(-c4ccc(Oc5ccccc5)cc4)nn32)CC1 [zanubrutinib] | -1.86 |  |  |  |  |  | 
